Results published in ChEMBL document CHEMBL1909046, “DrugMatrix in vitro pharmacology data”.
Where a SMILES comes first, the peptide text is derived from it. Bridges are numbered along the chain shown (N, C = ends). [ ]: non-standard residue; d: D form. The star is where a group is joined. Threoninol(2S,3R) = C[C@@H](O)[C@H](CO)N*

Experiments:
[1] = DRUGMATRIX: Serotonin (5-Hydroxytryptamine) 5-HT3 radioligand binding (ligand: [3H] GR-65630); type: cell membranes, Membrane; settings: hek293, Not Active = under 50% inhibition at 10 µM
[2] = biological target: T1, Vasoactive intestinal polypeptide receptor 1 (Homo sapiens, UniProt P32241); type: cell membranes, Membrane; settings: ht-29; further: in other assays of this panel Not Active means under 50% inhibition at 10 µM
T1 sequence (P32241 whole entry): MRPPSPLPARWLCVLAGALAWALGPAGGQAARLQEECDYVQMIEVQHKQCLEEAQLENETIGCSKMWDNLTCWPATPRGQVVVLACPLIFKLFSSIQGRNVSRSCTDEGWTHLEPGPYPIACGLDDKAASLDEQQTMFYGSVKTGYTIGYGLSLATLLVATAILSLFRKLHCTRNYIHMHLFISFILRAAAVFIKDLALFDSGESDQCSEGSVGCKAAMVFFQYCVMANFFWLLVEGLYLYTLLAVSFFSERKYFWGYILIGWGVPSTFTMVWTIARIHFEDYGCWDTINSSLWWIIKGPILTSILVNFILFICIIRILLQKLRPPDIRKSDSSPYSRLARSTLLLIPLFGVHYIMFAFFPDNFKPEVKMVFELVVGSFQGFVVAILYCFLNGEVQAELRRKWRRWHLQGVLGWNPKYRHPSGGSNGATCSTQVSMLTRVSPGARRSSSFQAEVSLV

[3] = DRUGMATRIX: GABAA, Chloride Channel, TBOB radioligand binding (ligand: [3H] TBOB); type: cell membranes, Rattus norvegicus, Wistar, Cerebral cortex, Membrane; settings: Not Active = under 50% inhibition at 10 µM
[4] = biological target: T2, Cysteinyl leukotriene receptor 1 (Homo sapiens, UniProt Q9Y271); type: cell membranes, CHO-K1, Membrane; settings: cho-k1; further: in other assays of this panel Not Active means under 50% inhibition at 10 µM
T2 sequence (Q9Y271 whole entry): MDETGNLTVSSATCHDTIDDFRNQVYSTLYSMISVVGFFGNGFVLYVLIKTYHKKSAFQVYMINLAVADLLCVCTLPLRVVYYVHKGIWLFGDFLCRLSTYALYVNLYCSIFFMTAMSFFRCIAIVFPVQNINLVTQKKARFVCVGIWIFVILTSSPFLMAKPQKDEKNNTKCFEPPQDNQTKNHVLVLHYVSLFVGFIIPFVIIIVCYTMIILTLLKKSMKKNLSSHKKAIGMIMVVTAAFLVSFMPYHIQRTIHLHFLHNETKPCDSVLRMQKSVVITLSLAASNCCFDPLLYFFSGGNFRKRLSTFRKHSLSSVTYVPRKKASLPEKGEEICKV

[5] = biological target: T3, Amine oxidase [flavin-containing] A (Homo sapiens, UniProt P21397); test: DRUGMATRIX: Monoamine Oxidase MAO-A enzyme inhibition (substrate: Kynuramine); set-up: species or system BTI-TN-5B1-4; settings: Not Active = under 50% inhibition at 10 µM
T3 sequence (P21397 whole entry): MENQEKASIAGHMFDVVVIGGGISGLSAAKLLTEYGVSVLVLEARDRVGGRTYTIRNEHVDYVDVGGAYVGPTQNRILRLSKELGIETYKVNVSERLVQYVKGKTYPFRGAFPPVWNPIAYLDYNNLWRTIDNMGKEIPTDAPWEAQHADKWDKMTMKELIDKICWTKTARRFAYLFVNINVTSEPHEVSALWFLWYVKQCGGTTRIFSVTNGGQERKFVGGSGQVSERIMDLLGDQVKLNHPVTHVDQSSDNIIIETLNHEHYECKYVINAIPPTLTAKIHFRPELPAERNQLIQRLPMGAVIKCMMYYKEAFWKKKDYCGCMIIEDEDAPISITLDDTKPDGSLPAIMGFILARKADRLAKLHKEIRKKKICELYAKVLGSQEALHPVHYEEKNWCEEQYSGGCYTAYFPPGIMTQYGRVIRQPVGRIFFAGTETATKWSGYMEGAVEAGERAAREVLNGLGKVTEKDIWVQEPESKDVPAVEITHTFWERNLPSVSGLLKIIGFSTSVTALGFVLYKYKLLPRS

[6] = biological target: Tyrosine-protein kinase Fyn (Homo sapiens, UniProt P06241); test: biochemical; type: cell-based, Insect cells; settings: insect cells;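 further: enzymatic inhibition of Fyn kinase activity measured with Poly(Glu:Tyr) as the phosphorylation substrate; in other assays of this panel Not Active means under 50% inhibition at 10 µM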
Chain of Tyrosine-protein kinase Fyn (P06241 whole entry): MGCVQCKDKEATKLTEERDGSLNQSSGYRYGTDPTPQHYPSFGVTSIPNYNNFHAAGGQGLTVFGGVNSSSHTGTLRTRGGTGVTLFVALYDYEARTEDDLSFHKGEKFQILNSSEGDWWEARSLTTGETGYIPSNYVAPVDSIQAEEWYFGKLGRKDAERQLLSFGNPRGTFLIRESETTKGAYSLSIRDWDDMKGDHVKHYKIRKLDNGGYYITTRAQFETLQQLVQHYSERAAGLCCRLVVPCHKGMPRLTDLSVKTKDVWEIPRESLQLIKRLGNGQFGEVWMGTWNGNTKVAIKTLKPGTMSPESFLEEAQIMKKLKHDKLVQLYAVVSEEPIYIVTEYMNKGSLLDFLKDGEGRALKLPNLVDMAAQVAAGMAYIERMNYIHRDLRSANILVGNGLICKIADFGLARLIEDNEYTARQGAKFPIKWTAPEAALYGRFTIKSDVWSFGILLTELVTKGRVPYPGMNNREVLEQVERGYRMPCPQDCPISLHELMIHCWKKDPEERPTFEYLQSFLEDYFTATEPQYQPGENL

Row | SMILES | IC50 [1] | Ki [1] | IC50 [2] | IC50 [3] | Ki [3] | IC50 [4] | IC50 ([5]; bti-tn-5b1-4) | IC50 [6] | IC50 ([5]; read-out: IC50) | Ki [2] | Ki [4] | Ki ([5]; bti-tn-5b1-4) | Ki [6] | IC50 ([1]; read-out: IC50) | Ki ([1]; read-out: Ki)
1 | COc1ccccc1C(=O)N1CCC(Cc2ccccc2)CC1 | Not Active | Not Active | Not Active | Not Active | Not Active | Not Active | Not Active | Not Active | – | – | – | – | – | – | –
2 | Cc1ccccc1C(=O)N1CCC(Cc2ccccc2)CC1 | Not Active | Not Active | Not Active | Not Active | Not Active | Not Active | Not Active | Not Active | – | – | – | – | – | – | –
3 | O=C1CC[C@H](N2C(=O)c3ccccc3C2=O)C(=O)N1 | Not Active | Not Active | Not Active | Not Active | Not Active | Not Active | Not Active | Not Active | – | – | – | – | – | – | –
4 | N=C(Nc1ccccc1)Nc1ccccc1 | Not Active | Not Active | Not Active | Not Active | Not Active | Not Active | Not Active | Not Active | – | – | – | – | – | – | –
5 | C[C@@H](O)[C@H](CO)NC(=O)[C@@H]1CSSC[C@H](NC(=O)[C@H](N)Cc2ccccc2)C(=O)N[C@@H](Cc2ccccc2)C(=O)N[C@H](Cc2c[nH]c3ccccc23)C(=O)N[C@@H](CCCCN)C(=O)N[C@@H]([C@@H](C)O)C(=O)N1 (H-[dF]CF[dW]KTC-{Threoninol(2S,3R)}; disulfide 2-7) | Not Active | Not Active | Not Active | Not Active | Not Active | Not Active | Not Active | Not Active | – | – | – | – | – | – | –
6 | S=C=Nc1cccc2ccccc12 [1-NAPHTHYLISOTHIOCYANATE] | Not Active | Not Active | Not Active | Not Active | Not Active | Not Active | – | Not Active | 22.4 µM | – | – | – | – | – | –
7 | C[C@](O)(CS(=O)(=O)c1ccc(F)cc1)C(=O)Nc1ccc(C#N)c(C(F)(F)F)c1 [(R)-BICALUTAMIDE] | Not Active | Not Active | Not Active | Not Active | Not Active | Not Active | Not Active | Not Active | – | – | – | – | – | – | –
8 | CCCC(=O)Nc1ccc(OCC(O)CNC(C)C)c(C(C)=O)c1 (configuration not stated) [ACEBUTOLOL] | Not Active | Not Active | Not Active | Not Active | Not Active | Not Active | Not Active | Not Active | – | – | – | – | – | – | –
9 | CC(=O)Nc1ccc(O)cc1 [ACETAMINOPHEN] | Not Active | Not Active | Not Active | Not Active | Not Active | Not Active | Not Active | Not Active | – | – | – | – | – | – | –
10 | COc1cc2c(c3oc(=O)c4c(c13)CCC4=O)[C@@H]1C=CO[C@@H]1O2 [AFLATOXIN] | Not Active | Not Active | Not Active | Not Active | Not Active | Not Active | Not Active | Not Active | – | Not Active | Not Active | Not Active | Not Active | – | –
11 | N=C(N)NC(=O)c1nc(Cl)c(N)nc1N [AMILORIDE] | Not Active | Not Active | Not Active | Not Active | Not Active | Not Active | – | Not Active | 3.91 µM | – | – | – | – | – | –
12 | Cc1cc(=O)n(-c2ccccc2)n1C [ANTIPYRINE] | Not Active | Not Active | Not Active | Not Active | Not Active | Not Active | Not Active | Not Active | – | – | – | – | – | – | –
13 | CN1C(=O)COc2c(C(=O)NC3CN4CCC3CC4)cc(Cl)cc21 (configuration not stated) [AZASETRON] | – | – | Not Active | Not Active | Not Active | Not Active | Not Active | Not Active | – | – | – | – | – | 0.013 µM | 0.00289 µM
14 | C[C@H]1C[C@H]2[C@@H]3CCC4=CC(=O)C=C[C@]4(C)[C@@]3(Cl)[C@@H](O)C[C@]2(C)[C@@]1(O)C(=O)CO [BECLOMETHASONE] | Not Active | Not Active | Not Active | Not Active | Not Active | Not Active | Not Active | Not Active | – | – | – | – | – | – | –
15 | CCOC(=O)[C@H](CCc1ccccc1)N[C@H]1CCc2ccccc2N(CC(=O)O)C1=O [BENAZEPRIL] | Not Active | Not Active | Not Active | Not Active | Not Active | Not Active | Not Active | Not Active | – | – | – | – | – | – | –
16 | Nc1c(CC(=O)O)cccc1C(=O)c1ccc(Br)cc1 [BROMFENAC] | Not Active | Not Active | Not Active | Not Active | Not Active | Not Active | Not Active | Not Active | – | – | – | – | – | – | –
17 | CCCCN1CCCCC1C(=O)Nc1c(C)cccc1C.Cl (configuration not stated) [BUPIVACAINE HYDROCHLORIDE] | Not Active | Not Active | Not Active | Not Active | Not Active | Not Active | Not Active | Not Active | – | – | – | – | – | – | –
18 | O=C1CC2(CCCC2)CC(=O)N1CCCCN1CCN(c2ncccn2)CC1 [BUSPIRONE] | Not Active | Not Active | Not Active | Not Active | Not Active | Not Active | Not Active | Not Active | – | – | – | – | – | – | –
19 | C[C@@]12C(=O)OC(=O)[C@]1(C)[C@H]1CC[C@@H]2O1 [CANTHARIDIN] | Not Active | Not Active | Not Active | Not Active | Not Active | Not Active | Not Active | Not Active | – | – | – | – | – | – | –
20 | O=NN(CCCl)C(=O)NCCCl [CARMUSTINE] | Not Active | Not Active | Not Active | Not Active | Not Active | Not Active | Not Active | Not Active | – | – | – | – | – | – | –
21 | CC1=C(C(=O)O)N2C(=O)[C@@H](NC(=O)[C@H](N)c3ccccc3)[C@H]2SC1 [CEPHALEXIN ANHYDROUS] | Not Active | Not Active | Not Active | Not Active | Not Active | Not Active | Not Active | Not Active | – | – | – | – | – | – | –
22 | O=C(N[C@H](CO)[C@H](O)c1ccc([N+](=O)[O-])cc1)C(Cl)Cl [CHLORAMPHENICOL] | Not Active | Not Active | Not Active | Not Active | Not Active | Not Active | Not Active | Not Active | – | – | – | – | – | – | –
23 | ClC(Cl)Cl [CHLOROFORM] | Not Active | Not Active | Not Active | Not Active | Not Active | Not Active | Not Active | Not Active | – | – | – | – | – | – | –
24 | C=C1CC[C@H](O)C/C1=C/C=C1\CCC[C@]2(C)[C@@H]([C@H](C)CCCC(C)C)CC[C@@H]12 [CHOLECALCIFEROL] | Not Active | Not Active | Not Active | Not Active | Not Active | Not Active | Not Active | Not Active | – | – | – | – | – | – | –
25 | C/C=C/C[C@@H](C)[C@@H](O)[C@H]1C(=O)N[C@@H](CC)C(=O)N(C)CC(=O)N(C)[C@@H](CC(C)C)C(=O)N[C@@H](C(C)C)C(=O)N(C)[C@@H](CC(C)C)C(=O)N[C@@H](C)C(=O)N[C@H](C)C(=O)N(C)[C@@H](CC(C)C)C(=O)N(C)[C@@H](CC(C)C)C(=O)N(C)[C@@H](C(C)C)C(=O)N1C [CYCLOSPORINE] | Not Active | Not Active | Not Active | – | – | Not Active | Not Active | Not Active | – | – | – | – | – | – | –
